Reference: ChEMBL document CHEMBL3621049, “Imidazole derivatives show anticancer potential by inducing apoptosis and cellular senescence” (2014)
The source made the active and inactive calls.

Tests used:
Format in all cases: functional, cell-based
OVCAR-5 = assay: Growth inhibition of human OVCAR5 cells at 10 uM by sulforhodamine B assay
U-251 = assay: Growth inhibition of human U251 cells at 10 uM by sulforhodamine B assay
COLO 205 = assay: Growth inhibition of human COLO205 cells at 10 uM by sulforhodamine B assay
MCF7 = assay: Growth inhibition of human MCF7 cells at 10 uM by sulforhodamine B assay
NCI/ADR-RES = assay: Growth inhibition of human NCI/ADR-RES cells at 10 uM by sulforhodamine B assay
UACC-257 = assay: Growth inhibition of human UACC257 cells at 10 uM by sulforhodamine B assay
K562 = assay: Growth inhibition of human K562 cells at 10 uM by sulforhodamine B assay
HT-29 = assay: Growth inhibition of human HT-29 cells at 10 uM by sulforhodamine B assay
MDA-MB-468 = assay: Growth inhibition of human MDA-MB-468 cells at 10 uM by sulforhodamine B assay
CAKI-1 = assay: Growth inhibition of human Caki1 cells at 10 uM by sulforhodamine B assay
M14 = assay: Growth inhibition of human M14 cells at 10 uM by sulforhodamine B assay
HOP-92 = assay: Growth inhibition of human HOP92 cells at 10 uM by sulforhodamine B assay
UACC-62 = assay: Growth inhibition of human UACC62 cells at 10 uM by sulforhodamine B assay
HCC 2998 = assay: Growth inhibition of human HCC2998 cells at 10 uM by sulforhodamine B assay
HL-60(TB) = assay: Growth inhibition of human HL-60(TB) cells at 10 uM by sulforhodamine B assay
BT-549 = assay: Growth inhibition of human BT549 cells at 10 uM by sulforhodamine B assay
OVCAR-8 = assay: Growth inhibition of human OVCAR8 cells at 10 uM by sulforhodamine B assay
SK-MEL-2 = assay: Growth inhibition of human SK-MEL-2 cells at 10 uM by sulforhodamine B assay
NCI-H460 = assay: Growth inhibition of human NCI-H460 cells at 10 uM by sulforhodamine B assay
MDA-MB-435 = assay: Growth inhibition of human MDA-MB-435 cells at 10 uM by sulforhodamine B assay
SF-539 = assay: Growth inhibition of human SF539 cells at 10 uM by sulforhodamine B assay
SF-268 = assay: Growth inhibition of human SF268 cells at 10 uM by sulforhodamine B assay
NCI-H226 = assay: Growth inhibition of human NCI-H226 cells at 10 uM by sulforhodamine B assay
SR = assay: Growth inhibition of human SR cells at 10 uM by sulforhodamine B assay
DU-145 = assay: Growth inhibition of human DU145 cells at 10 uM by sulforhodamine B assay
NCI-H23 = assay: Growth inhibition of human NCI-H23 cells at 10 uM by sulforhodamine B assay
TK-10 = assay: Growth inhibition of human TK10 cells at 10 uM by sulforhodamine B assay
RPMI-8226 = assay: Growth inhibition of human RPMI8226 cells at 10 uM by sulforhodamine B assay
SK-OV-3 = assay: Growth inhibition of human SKOV3 cells at 10 uM by sulforhodamine B assay
RXF 393 = assay: Growth inhibition of human RXF393 cells at 10 uM by sulforhodamine B assay
HOP-62 = assay: Growth inhibition of human HOP62 cells at 10 uM by sulforhodamine B assay
OVCAR-4 = assay: Growth inhibition of human OVCAR4 cells at 10 uM by sulforhodamine B assay
UO-31 = assay: Growth inhibition of human UO31 cells at 10 uM by sulforhodamine B assay
SNB-19 = assay: Growth inhibition of human SNB19 cells at 10 uM by sulforhodamine B assay
SK-MEL-28 = assay: Growth inhibition of human SK-MEL-28 cells at 10 uM by sulforhodamine B assay
SF-295 = assay: Growth inhibition of human SF295 cells at 10 uM by sulforhodamine B assay
CCRF-CEM = assay: Growth inhibition of human CCRF-CEM cells at 10 uM by sulforhodamine B assay
A549 = assay: Growth inhibition of human A549/ATCC cells at 10 uM by sulforhodamine B assay
SW-620 = assay: Growth inhibition of human SW620 cells at 10 uM by sulforhodamine B assay
NCI-H322M = assay: Growth inhibition of human NCI-H322M cells at 10 uM by sulforhodamine B assay
MDA-MB-231 = assay: Growth inhibition of human MDA-MB-231 cells at 10 uM by sulforhodamine B assay
PC-3 = assay: Growth inhibition of human PC3 cells at 10 uM by sulforhodamine B assay
Malme-3M = assay: Growth inhibition of human MALME-3M cells at 10 uM by sulforhodamine B assay
786-0 = assay: Growth inhibition of human 786-0 cells at 10 uM by sulforhodamine B assay
ACHN = assay: Growth inhibition of human ACHN cells at 10 uM by sulforhodamine B assay
MOLT-4 = assay: Growth inhibition of human MOLT4 cells at 10 uM by sulforhodamine B assay
NCI-H522 = assay: Growth inhibition of human NCI-H522 cells at 10 uM by sulforhodamine B assay
SN12C = assay: Growth inhibition of human SN12C cells at 10 uM by sulforhodamine B assay
HCT-15 = assay: Growth inhibition of human HCT15 cells at 10 uM by sulforhodamine B assay
T47D = assay: Growth inhibition of human T47D cells at 10 uM by sulforhodamine B assay
KM12 = assay: Growth inhibition of human KM12 cells at 10 uM by sulforhodamine B assay
HCT-116 = assay: Growth inhibition of human HCT116 cells at 10 uM by sulforhodamine B assay
IGROV-1 = assay: Growth inhibition of human IGROV1 cells at 10 uM by sulforhodamine B assay
SK-MEL-5 = assay: Growth inhibition of human SK-MEL-5 cells at 10 uM by sulforhodamine B assay
Hs-578T = assay: Growth inhibition of human Hs 578T cells at 10 uM by sulforhodamine B assay
LOX IMVI = assay: Growth inhibition of human LOXIMVI cells at 10 uM by sulforhodamine B assay
A498 = assay: Growth inhibition of human A498 cells at 10 uM by sulforhodamine B assay
OVCAR-3 = assay: Growth inhibition of human OVCAR3 cells at 10 uM by sulforhodamine B assay
SNB-75 = assay: Growth inhibition of human SNB75 cells at 10 uM by sulforhodamine B assay

Measured: growth inhibition (GI)

COc1cc(-c2nc(-c3ccccc3)c(-c3ccccc3)[nH]2)ccc1OC1CCCC1
active: OVCAR-5 | U-251 | COLO 205 | MCF7 | NCI/ADR-RES | UACC-257 | K562 | HT-29 | MDA-MB-468 | CAKI-1 | M14 | HOP-92 | UACC-62 | HCC 2998 | HL-60(TB) | BT-549 | OVCAR-8 | SK-MEL-2 | NCI-H460 | MDA-MB-435 | SF-539 | SF-268 | NCI-H226 | SR | DU-145 | NCI-H23 | TK-10 | RPMI-8226 | SK-OV-3 | RXF 393 | HOP-62 | OVCAR-4 | UO-31 | SNB-19 | SK-MEL-28 | SF-295 | CCRF-CEM | A549 | SW-620 | NCI-H322M | MDA-MB-231 | PC-3 | Malme-3M | 786-0 | ACHN | MOLT-4 | NCI-H522 | SN12C | HCT-15 | T47D | KM12 | HCT-116 | IGROV-1 | SK-MEL-5 | Hs-578T | LOX IMVI | A498 | OVCAR-3 | SNB-75

C#CCn1c(-c2ccc(OC3CCCC3)c(OC)c2)nc(-c2ccccc2)c1-c1ccccc1
active: OVCAR-5 | U-251 | COLO 205 | MCF7 | NCI/ADR-RES | UACC-257 | K562 | HT-29 | MDA-MB-468 | CAKI-1 | M14 | HOP-92 | UACC-62 | HCC 2998 | HL-60(TB) | BT-549 | OVCAR-8 | SK-MEL-2 | NCI-H460 | MDA-MB-435 | SF-539 | SF-268 | NCI-H226 | SR | DU-145 | NCI-H23 | TK-10 | RPMI-8226 | SK-OV-3 | RXF 393 | HOP-62 | OVCAR-4 | UO-31 | SNB-19 | SK-MEL-28 | SF-295 | CCRF-CEM | A549 | SW-620 | NCI-H322M | MDA-MB-231 | PC-3 | Malme-3M | 786-0 | ACHN | MOLT-4 | NCI-H522 | SN12C | HCT-15 | T47D | KM12 | HCT-116 | IGROV-1 | SK-MEL-5 | Hs-578T | LOX IMVI | A498 | OVCAR-3 | SNB-75
